Earlier results in US20170072072A1, “PH SENSITIVE FLUORESCENT COMPOUNDS AND METHODS FOR TUMOR DETECTION” (THE METHODIST HOSPITAL SYSTEM, priority 2014, published 2017).

Settings: in DMSO

SMILES: CC1(C)C(/C=C/C=C/C=C/C=C2\N(CCCCS(=O)(=O)O)c3ccc4ccccc4c3C2(C)C)=[N+](CCCCS(=O)(=O)[O-])c2ccc3ccccc3c21 [indocyanine green]
- quantum yield Φ of reference: 0.106
